Data from US8618100B2, “Compounds with antibacterial activity against Clostridium” (Elanco Animal Health Ireland Limited, priority 2010, dated 2013).
Converted amounts (≈) assume the structure as drawn.

Assays:
[1] = tested on: Clostridium perfringens (strain 56); assay: microbe, parasite or virus in culture; type: cell-based; details: 24 h, read-out: IC90 against C. perfringens
[2] = tested on: Clostridium difficile (ATCC9689); assay: In-vitro anti-bacterial activity against C. difficile (D.1.2); type: cell-based; details: Clostridioides difficile, Reinforced Clostridial broth, 37° C., 48 hours, anaerobic, OD 570 nm
Moraxella catarrhalis = assay: In-vitro test against several bacteria (D.1.3): M. catarrhalis; type: cell-based; details: Gram negative, Brain heart Infusion medium, 20-24 hours aerobic, read-out: IC90 against M. cattarhalis
Experimental: (§1) The plates were incubated at 37° C.

Acinetobacter baumanii = assay: In-vitro test against several bacteria (D.1.3): A. baumanii; type: cell-based; details: Acinetobacter baumannii; Gram negative; Nutrient broth; 20-24 hours aerobic
Experimental: as §1

Enterococcus faecalis = assay: In-vitro test against several bacteria (D.1.3): E. faecalis; type: cell-based; details: Gram positive, Todd Hewitt medium, 20-24 hours in 5% CO2; for IC90: Enterococcus faecalis
Experimental: (§2) The plates were incubated at 37° C. […] Enterococcus faecalis, Streptococcus pneumonia: Todd Hewitt medium; incubation for 20-24 hours in 5% CO2.

Streptococcus pneumonia = assay: In-vitro test against several bacteria (D.1.3): S. pneumonia; type: cell-based; details: Gram positive, Todd Hewitt medium, 20-24 hours in 5% CO2; for IC90: Streptococcus pneumoniae
Experimental: as §2

Mycobacterium smegmatis = assay: In-vitro test against several bacteria (D.1.3): M. smegmatis; type: cell-based; details: Mycolicibacterium smegmatis; Mueller Hinton medium; 48 hours aerobic
Experimental: The plates were incubated at 37° C. […] Mycobacterium smegmatis: Mueller Hinton medium; incubation for 48 hours in aerobic conditions.

Escherichia coli = assay: In-vitro test against several bacteria (D.1.3): E. coli; details: read-out: IC90 against E. coli
Staphylococcus aureus = assay: In-vitro test against several bacteria (D.1.3): S. aureus; details: for IC90: Staphylococcus aureus, read-out: IC90 against S. aureus
Bacillus subtilis = assay: In-vitro test against several bacteria (D.1.3): B. subtilis; details: read-out: IC90 against B. subtilis
Klebsiella pneumoniae = assay: In-vitro test against several bacteria (D.1.3): K. pneumoniae; details: read-out: IC90 against K. pneumoniae
Pseudomonas aeruginosa = assay: In-vitro test against several bacteria (D.1.3): P. aeruginosa; details: read-out: IC90 against P. aeruginosa
[3] = tested on: Staphylococcus epidermidis; assay: In-vitro test against several bacteria (D.1.3): S. epidermidis; details: for IC90: Staphylococcus epidermidis, read-out: IC90 against S. epidermidis
Listeria monocytogenes = assay: In-vitro test against several bacteria (D.1.3): L. monocytogenes; details: read-out: IC90 against L. monocytogenes
[4] = tested on: Methicillin-Resistant Staphylococcus aureus; assay: In-vitro test against several bacteria (D.1.3): Methicillin-Resistant S. aureus; details: for IC90: Staphylococcus aureus, read-out: IC90 against Methicillin-Resistant S. aureus
[5] = Gram positive, Mueller Hinton medium, 20-24 hours aerobic

Row | Compound | IC90 [1] | IC90 [2] | IC90 (Moraxella catarrhalis) | IC90 (Acinetobacter baumanii) | IC90 (Enterococcus faecalis) | IC90 (Streptococcus pneumonia) | IC90 (Mycobacterium smegmatis) | melting point | IC90 (Escherichia coli) | IC90 (Staphylococcus aureus) | IC90 (Bacillus subtilis) | IC90 (Klebsiella pneumoniae) | IC90 (Pseudomonas aeruginosa) | IC90 [3] | IC90 (Listeria monocytogenes) | IC90 [4] | other results
1 | Cl.Oc1nc(NCCCN[C@@H]2CCOc3c(Br)cc(Br)cc32)nc2ccnn12 [Compound (2)] | 0.5 µg/mL | 2 µg/mL | 16 µg/mL | > 64 µg/mL | 1.5 µg/mL | > 31 µg/mL | > 31 µg/mL | 234.6 to 235.6 °C | > 31 µg/mL | 8 to 15 µg/mL | 4 µg/mL | > 64 µg/mL | > 75 µg/mL | 15 µg/mL | 2 µg/mL | 7 to 13 µg/mL | IC90 against S. pneumonia (Streptococcus pneumonia): >31 µg/mL
2 | Nc1nc(NCCCN[C@@H]2CCOc3c(Br)cc(Br)cc32)nc2c(Cl)cnn12 [(4)] |  |  |  |  |  |  |  | 78.7 to 94.1 °C |  |  |  |  |  |  |  |  | 
3 | O=c1cc(NCCCN[C@@H]2CCOc3c(Br)cc(Br)cc32)[nH]c2ccsc12 [REP3123, 5-[3-((R)(+)-6,8-dibromo-chroman-4-ylamino)-propylamino]-4H-thieno[3,2-b]pyridine-7-one] | 0.25 µg/mL (≈ 0.487 µM) | 0.5 to 1 µg/mL (≈ 0.974 to 1.95 µM) | 16 µg/mL (≈ 31.2 µM) | > 64 µg/mL | < 0.25 µg/mL | 1 µg/mL (≈ 1.95 µM) | 6 to 8 µg/mL (≈ 11.7 to 15.6 µM) |  | > 32 µg/mL | < 0.25 µg/mL | 0.12 µg/mL (≈ 0.234 µM) | > 64 µg/mL | > 78 µg/mL | < 0.25 µg/mL | 0.12 µg/mL (≈ 0.234 µM) | < 0.25 µg/mL | IC90 against E. faecalis (Enterococcus faecalis): <0.25 µg/mL; IC90 against S. aureus (Staphylococcus aureus; [5]): <0.25 µg/mL; IC90 against S. epidermidis [3, 5]: <0.25 µg/mL; IC90 against Methicillin-Resistant S. aureus [4, 5]: <0.25 µg/mL
4 | CNc1nc(NCCCN[C@@H]2CCOc3c(Br)cc(Br)cc32)nc2c(Cl)cnn12 [(3)] |  |  |  |  |  |  |  | 108.8 to 118.6 °C |  |  |  |  |  |  |  |  | 
